In patent US5843958A, “Arylpyrazoles as leukotriene inhibitors” (Ortho Pharmaceutical Corporation, priority 1997, dated 1998):
pIC50: −log10 of the molar value.

How the values were obtained:
[1] = test system: 5-LO; assay: inhibition of 5-LO (5-HETE production) in intact RBL-1 cells (whole cell); assay type: cell-based, Rat; details: Table A
Method: (§1) The compounds of the invention were evaluated for their ability to inhibit the production of the arachidonic acid product 5-HETE in broken and whole cell models. Since this is the first step of leukotriene biosynthesis, a reduction in the production of 5-HETE is directly attributable to inhibition of 5-lipoxygenase, where the standard concentration is 3.0 μM. If the IC50 of the whole cell assay is smaller than the IC50 of the broken cell model, it is an indication that the compounds are inhibiting the cooperation of FLAP and 5-lipoxygenase.
The ability to inhibit 5-LO and CO in intact RBL-1 cells was also evaluated. RBL-1 cells were maintained in culture in minimal essential medium (Bio*Whittaker, Walkersville, Md.), containing 12.5% fetal calf serum, 10 mg/mL streptomycin, 10 I.U./mL penicillin G, […] gentamycin and 2 mM L-glutamine (Bio*Whittaker, Walkersville, Md.). Cells were collected by centrifugation, washed once in HBSS, and resuspended at a concentration of 1×10^5 cells/mL. Cells were incubated in the presence of vehicle or drug then centrifuged at 800×g for 10 minutes at 4° C. The supernatant was removed by aspiration and the cells were resuspended in 0.5 mL of HBSS. The reaction was started by the addition of 20 μg/mL of calcium ionophore A 23187 (mixed calcium and magnesium salts, Calbiochem, La Jolla Calif.) and allowed to proceed for 15 minutes, then stopped by plunging the tubes into a slush ice bath. The conversion of AA to 5-LO products was initiated by the addition of 10 μL (50 uCi) of 1-^14 C-AA. Products were isolated by acidification and extraction, followed by thin layer chromatography analysis as described above. Radioactive areas corresponding to authentic 5-LO (5-HETE) and CO (PGD2) products were quantitated by the Bioscan 2000 Imaging System and the IC50 was calculated as above.

[2] = molecular target: T1, 5-lipoxygenase (Rattus norvegicus, UniProt P12527); assay: inhibition of 5-HETE production in broken RBL-1 cells (isolated enzyme); assay type: biochemical; details: Table A, broken RBL-1 cell supernatant; for inhibition at 3 µM: read-out: Isolated Enzyme % Inhib.; for inhibition at 3 µM / Isolated Enzyme % Inhib.: 3 μM
T1 construct: The pellet was discarded and the supernatant was saved as the source of enzymes; endogenous in cells; host or cells: RBL-1 (rat basophilic leukemia) cells, homogenate supernatant
T1 sequence (P12527 1-673): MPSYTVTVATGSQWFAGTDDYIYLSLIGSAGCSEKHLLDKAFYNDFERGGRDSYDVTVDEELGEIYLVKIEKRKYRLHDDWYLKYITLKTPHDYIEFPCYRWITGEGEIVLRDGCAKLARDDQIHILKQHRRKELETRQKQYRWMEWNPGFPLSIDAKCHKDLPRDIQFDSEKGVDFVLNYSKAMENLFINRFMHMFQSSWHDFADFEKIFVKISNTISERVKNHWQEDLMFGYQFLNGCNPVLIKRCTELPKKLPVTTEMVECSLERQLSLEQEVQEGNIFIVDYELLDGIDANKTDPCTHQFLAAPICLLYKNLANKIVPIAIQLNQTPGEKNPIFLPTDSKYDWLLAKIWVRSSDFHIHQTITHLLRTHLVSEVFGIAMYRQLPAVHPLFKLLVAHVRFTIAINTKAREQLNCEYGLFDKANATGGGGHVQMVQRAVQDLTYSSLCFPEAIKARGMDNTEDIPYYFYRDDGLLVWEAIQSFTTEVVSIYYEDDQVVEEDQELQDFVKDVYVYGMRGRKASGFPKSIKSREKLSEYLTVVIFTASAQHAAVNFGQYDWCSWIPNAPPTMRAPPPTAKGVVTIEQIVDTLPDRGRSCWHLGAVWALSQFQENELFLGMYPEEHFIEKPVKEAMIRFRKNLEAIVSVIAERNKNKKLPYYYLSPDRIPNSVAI
Method: as §1
Rat basophilic leukemia cells (RBL-1; 5×10^7 viable cells/mL) were disrupted by homogenization on ice (four 20 sec bursts) with a Brinkman polytron. Complete cell breakage was verified microscopically. The homogenate was then centrifuged at 9,220×g for 48 minutes at 4° C. The pellet was discarded and the supernatant was saved as the source of enzymes. The supernatant was pre-incubated for five minutes at 37° C. in the presence of 2 mM of CaCl2 and compound or vehicle (1% DMSO). The conversion of AA into products by CO and LO was initiated by adding 10 μL (50 μCi) of 1-^14 C-AA to each tube and incubated at 37° C. for 20 minutes. The reaction was stopped by adjusting the pH of each sample to 3 to 3.5 with 2M formic acid. Samples were extracted with three volumes of chloroform to isolate the products of 5-LO formed during the reaction. Fractions were dried under nitrogen, then resuspended in 40 μL of chloroform and spotted onto silica gel HL plates. The plates were developed in A-9 solvent. The dried plates were analyzed using a Bioscan Imaging TLC scanner to determine the percentage of radiolabelled AA converted to 5-HETE (LO product) in each sample. The percentage of inhibition was calculated by:
[1-(5-HETE test)]/5-HETE control×100=% inhibition
The IC50 was determined using a curve fit in Cricket Graph (Computer Associated), which provided the equation of the regressed line used in the calculation.

| Compound | pIC50 [1] | inhibition at 3 µM [2] [%] | Isolated Enzyme % Inhib. [2] [%] | pIC50 [2] |
| --- | --- | --- | --- | --- |
| CN(O)C(=O)OCCc1cc(-c2ccc(Cl)cc2)n(-c2ccc(OCc3ccc4ccccc4n3)cc2)n1 [Cpd 5, 5-(4-Chlorophenyl)-3-[2-(N-hydroxy-N-methylcarbamoyloxy)]ethyl]-1-[4-(2-quinolyl)methoxyphenyl]pyrazole.0.05 Hydrate] | 5.96 | 93 |  |  |
| CN(O)C(=O)CCc1cc(-c2ccc(Cl)cc2)n(-c2ccc(OCc3ccc4ccccc4n3)cc2)n1 [Cpd 7, 3-{5-(4-Chlorophenyl)-N-hydroxy-N-methyl-1-[4-(2-quinolyl)methoxyphenyl]pyrazol-3-yl}propanamide] | 6.31 |  | 93 | 6.68 |
| ON=CCCc1cc(-c2ccc(Cl)cc2)n(-c2ccc(OCc3ccc4ccccc4n3)cc2)n1 [Cpd 9, 5-(4-Chlorophenyl)-3-oximino 1-(4-(2-quinolyl)methoxy)phenyl)-pyrazol-3-yl]propanal.0.25 Hydrate] | 6.26 | 44 |  |  |
| COc1ccc(-n2nc(CCC(=O)O)cc2-c2ccc(OCc3ccc4ccccc4n3)cc2)cc1 [Cpd 13] | 5.41 |  | 8 |  |
| COc1ccc(-n2nc(CCC(=O)O)cc2-c2ccc(OCc3ccc4ccccc4n3)cc2)cc1 [Cpd 14] | 5.70 |  | 24 |  |
| COc1ccc(-n2nc(CCC(=O)N(C)O)cc2-c2ccc(OCc3ccc4ccccc4n3)cc2)cc1 [Cpd 16] | 6.27 | 87 |  |  |
| O=C(O)CCc1cc(-c2ccc(OCc3ccc4ccccc4n3)cc2)n(-c2ccc(Cl)cc2)n1 [Cpd 18] |  | 0 |  |  |
| O=C(O)CCc1cc(-c2ccc(OCc3ccc4ccccc4n3)cc2)n(-c2ccccc2)n1 [Cpd 19] |  | 0 |  |  |
| CN(O)C(=O)CCc1cc(-c2ccc(Cl)cc2)n(-c2ccc(OCc3ccc4ccccc4n3)cc2)n1 [Cpd 22] | 6.00 | 100 |  |  |

Next, values leading:

| pIC50 [1] | inhibition at 3 µM [2] [%] | Isolated Enzyme % Inhib. [2] [%] | pIC50 [2] | Compound |
| --- | --- | --- | --- | --- |
| 4.87 | 29 |  |  | CCOC(=O)Cc1cc(-c2ccc(Cl)cc2)n(-c2ccc(OCc3ccc4ccccc4n3)cc2)n1 [Cpd 1] |
| 6.41 | 15 |  |  | O=C(O)Cc1cc(-c2ccc(Cl)cc2)n(-c2ccc(OCc3ccc4ccccc4n3)cc2)n1 [Cpd 2, 2-[5-(4-Chlorophenyl)-1-(4-(2-quinolyl)methoxyphenyl)-pyrazol-3-yl]acetic acid] |
| 5.89 | 31 |  |  | OCCc1cc(-c2ccc(Cl)cc2)n(-c2ccc(OCc3ccc4ccccc4n3)cc2)n1 [Cpd 3] |
| 5.28 | 55 |  |  | ClCCc1cc(-c2ccc(Cl)cc2)n(-c2ccc(OCc3ccc4ccccc4n3)cc2)n1 [Cpd 4, 3-(2-Chloroethyl)-5-(4-chlorophenyl)-1-[4-(2-quinolyl)methoxyphenyl]pyrazole] |
| 5.49 | 49 |  |  | O=CCCc1cc(-c2ccc(Cl)cc2)n(-c2ccc(OCc3ccc4ccccc4n3)cc2)n1 [Cpd 8] |
| 5.82 | 34 |  |  | CC(C)COC(=O)CCc1cc(-c2ccc(Cl)cc2)n(-c2ccc(OCc3ccc4ccccc4n3)cc2)n1 [Cpd 10] |
| 5.19 | 32 |  |  | Cc1cc(-c2ccc(Cl)cc2)n(-c2ccc(OCc3ccc4ccccc4n3)cc2)n1 [Cpd 11] |
| 5.13 | 19 |  |  | CCOC(=O)CCc1cc(-c2ccc(Cl)cc2)n(-c2ccc(OCc3ccc4ccccc4n3)cc2)n1 [Cpd 12] |
| 5.28 | 0 |  |  | O=C(O)CCc1cc(-c2ccc(Cl)cc2)n(-c2ccc(OCc3ccc4ccccc4n3)cc2)n1 [Cpd 15] |
|  | 19 |  |  | COC(=O)CCc1cc(-c2ccc(OCc3ccc4ccccc4n3)cc2)n(-c2ccccc2)n1 [Cpd 17] |
| 6.08 | 21 |  |  | OCCCc1cc(-c2ccc(Cl)cc2)n(-c2ccc(OCc3ccc4ccccc4n3)cc2)n1 [Cpd 20] |
|  | 15 |  |  | CN(O)C(=O)CCc1cc(-c2ccc(OCc3ccc4ccccc4n3)cc2)n(-c2ccc(Cl)cc2)n1 [Cpd 21] |
